Measurements taken from US20140121216A1, “INDOLEAMINE DERIVATIVES FOR THE TREATMENT OF CENTRAL NERVOUS SYSTEM DISEASES” (Adamed Sp. z o.o., priority 2011, published 2014).
Each block holds one compound with its values, some of them ahead of it.

What was measured:
[1] = biological target: T1, 5-HT6 (h), human recombinant (CHO cells) (Homo sapiens, UniProt P50406); assay: Cellular functional assay 5-HT6 (h) antagonism; format: cell-based; settings: compound 1×10^−6 M, stimulus serotonin 100 nM, read-out: 5-HT6-antag [%]
T1 construct: expressed in transfected cells; host or cells: CHO cells
Procedure: (§1) The results are expressed as a percent of control specific agonist response ((measured specific response/control specific agonist response)×100) obtained in the presence of tested compound.
(§2) The EC50 values (concentration producing a half-maximal specific response) and IC50 values (concentration causing a half-maximal inhibition of the control specific agonist response) were determined by non-linear regression analysis of the concentration-response curves generated with mean replicate values using Hill equation curve fitting (Y=D+[(A−D)/(1+(C/C50)nH)], where Y=specific response, D=minimum specific response, A=maximum specific response, C=compound concentration, and C50=EC50 or IC50, and nH=slope factor).
(§3) For the antagonists, the apparent dissociation constants (Kb) were calculated using the modified Cheng Prusoff equation (Kb=IC50/(1+(A/EC50A)), where A=concentration of reference agonist in the assay, and EC50A=EC50 value of the reference agonist).

[2] = biological target: T2, D2S (h), human recombinant (HEK-293 cells) (Homo sapiens, UniProt P14416); assay: Cellular functional assay D2S (h) antagonism; format: cell-based; settings: HEK293; compound 1×10^−6 M; stimulus dopamine 30 nM; read-out: D2-antag [%]
T2 construct: expressed in transfected cells; host or cells: HEK-293 cells
Procedure: as §1, §2, §3

[3] = biological target: T2, D2S (h), human recombinant (HEK-293 cells); assay: Cellular functional assay D2S (h) agonism; format: cell-based; settings: HEK293; compound 1×10^−6 M; control 3 μM dopamine; read-out: D2-ag [%]
Procedure: as §1, §2, §3

[4] = system: α1 adrenergic receptors (rat cerebral cortex); assay: Binding assay, α1 adrenergic receptor ([3H]prazosin); settings: compound 1×10^−6 M
Procedure: (§4) The specific ligand binding to the receptors is defined as the difference between the total binding and the non-specific binding determined in the presence of an excess of unlabelled ligand.
(§5) The inhibition constants (Ki) were calculated using the Cheng Prusoff equation (Ki=IC50/(1+(L/KD)), where L=concentration of radioligand in the assay, and KD=affinity of the radioligand for the receptor). A Scatchard plot is used to determine the Kd. The IC50 values (concentration causing a half-maximal inhibition of control specific binding) and Hill coefficients (nH) were determined by non-linear regression analysis of the competition curves generated with mean replicate values using Hill equation curve fitting (Y=D+[(A−D)/(1+(C/C50)^nH)], where Y=specific binding, D=minimum specific binding, A=maximum specific binding, C=compound concentration, C50=IC50, and nH=slope factor). This analysis was performed using a software developed at Cerep (Hill software) and validated by comparison with data generated by the commercial software SigmaPlot® 4.0 for Windows® (©1997 by SPSS Inc.).
Experimental conditions for tests are given in Table 7, and results of tests for representative compounds are given in Tables 8a and 8b (α1 receptors) and in Tables 9a and 9b (α2C receptors).

[5] = biological target: T1, 5-HT6 (h), human recombinant (CHO cells); assay: Cellular functional assay 5-HT6 (h) agonism; format: cell-based; settings: compound 1×10^−6 M, control 10 μM serotonin, read-out: 5-HT6-ag [%]
Procedure: as §1, §2, §3

[6] = biological target: T3, 5-HT7 receptor, human recombinant (Homo sapiens, UniProt P34969); assay: Binding assay, 5-HT7 receptor ([3H]LSD); settings: compound 1×10^−6 M
T3 construct: purchased PerkinElmer
Procedure: (§6) Moreover, ability of the compounds of the invention to block potassium channel hERG was tested.
as §4
as §5, with “factor).” for “factor). This analysis was performed using a software developed at Cerep (Hill software) and validated by comparison with data generated by the commercial software SigmaPlot® 4.0 for Windows® (©1997 by SPSS Inc.).”

[7] = biological target: T4, D2 receptor, human recombinant (GeneBLAzer D2-Gqo5 CHO-K1 DA) (Homo sapiens, UniProt P14416); assay: Binding assay, dopaminergic D2 receptor ([3H]methylspiperone); settings: compound 1×10^−6 M
T4 construct: purchased Invitrogen; host or cells: CHO-K1 (GeneBLAzer D2-Gqo5 CHO-K1 DA)
Procedure: as §6, §4
as §5, with “factor).” for “factor). This analysis was performed using a software developed at Cerep (Hill software) and validated by comparison with data generated by the commercial software SigmaPlot® 4.0 for Windows® (©1997 by SPSS Inc.).”

[8] = biological target: T5, human recombinant SERT receptor (CHO cells) (Homo sapiens, UniProt P31645); assay: Binding assay, serotonine transporter (SERT) ([3H]imipramine); settings: compound 1×10^−6 M
T5 construct: expressed in transfected cells; host or cells: CHO cells
Procedure: as §6, §4
as §5, with “factor).” for “factor). This analysis was performed using a software developed at Cerep (Hill software) and validated by comparison with data generated by the commercial software SigmaPlot® 4.0 for Windows® (©1997 by SPSS Inc.).”

[9] = biological target: T6, 5-HT1A receptor (rat hippocampus) (Rattus norvegicus, UniProt P19327); assay: Binding assay, 5-HT1A receptor ([3H]8-OH-DPAT); settings: compound 1×10^−6 M
T6 construct: hippocampus; from tissue; host or cells: rat hippocampus
T6 sequence (P19327 1-422): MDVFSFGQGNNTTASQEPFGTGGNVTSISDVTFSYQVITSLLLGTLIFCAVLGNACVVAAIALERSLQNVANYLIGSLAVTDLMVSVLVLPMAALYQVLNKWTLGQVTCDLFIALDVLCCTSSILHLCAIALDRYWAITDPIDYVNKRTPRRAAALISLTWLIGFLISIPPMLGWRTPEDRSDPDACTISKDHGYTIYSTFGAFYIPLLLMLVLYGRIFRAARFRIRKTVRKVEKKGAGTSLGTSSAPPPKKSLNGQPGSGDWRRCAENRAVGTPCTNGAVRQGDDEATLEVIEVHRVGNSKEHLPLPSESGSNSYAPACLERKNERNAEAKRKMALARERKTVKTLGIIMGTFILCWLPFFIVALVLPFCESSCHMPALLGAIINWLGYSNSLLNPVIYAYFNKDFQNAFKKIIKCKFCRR
Procedure: as §6, §4
as §5, with “factor).” for “factor). This analysis was performed using a software developed at Cerep (Hill software) and validated by comparison with data generated by the commercial software SigmaPlot® 4.0 for Windows® (©1997 by SPSS Inc.).”

[10] = biological target: T7, 5-HT6 receptor, human recombinant (Homo sapiens, UniProt P50406); assay: Binding assay, 5-HT6 receptor ([3H]LSD); settings: compound 1×10^−6 M
T7 construct: purchased PerkinElmer
Procedure: as §6, §4
as §5, with “factor).” for “factor). This analysis was performed using a software developed at Cerep (Hill software) and validated by comparison with data generated by the commercial software SigmaPlot® 4.0 for Windows® (©1997 by SPSS Inc.).”

[11] = biological target: 5-HT2A receptor, human recombinant (Homo sapiens, UniProt P28223); assay: Binding assay, 5-HT2A receptor ([3H]ketanserin); design: purchased PerkinElmer; settings: compound 1×10^−6 M
Procedure: as §6, §4
as §5, with “factor).” for “factor). This analysis was performed using a software developed at Cerep (Hill software) and validated by comparison with data generated by the commercial software SigmaPlot® 4.0 for Windows® (©1997 by SPSS Inc.).”

[12] = biological target: T8, human recombinant D3 receptors (Homo sapiens, UniProt P35462); assay: Binding assay, dopaminergic D3 receptor ([3H]methylspiperone); settings: compound 1×10^−6 M
T8 construct: purchased PerkinElmer
Procedure: as §6, §4
as §5, with “factor).” for “factor). This analysis was performed using a software developed at Cerep (Hill software) and validated by comparison with data generated by the commercial software SigmaPlot® 4.0 for Windows® (©1997 by SPSS Inc.).”

T1 sequence (P50406 whole entry): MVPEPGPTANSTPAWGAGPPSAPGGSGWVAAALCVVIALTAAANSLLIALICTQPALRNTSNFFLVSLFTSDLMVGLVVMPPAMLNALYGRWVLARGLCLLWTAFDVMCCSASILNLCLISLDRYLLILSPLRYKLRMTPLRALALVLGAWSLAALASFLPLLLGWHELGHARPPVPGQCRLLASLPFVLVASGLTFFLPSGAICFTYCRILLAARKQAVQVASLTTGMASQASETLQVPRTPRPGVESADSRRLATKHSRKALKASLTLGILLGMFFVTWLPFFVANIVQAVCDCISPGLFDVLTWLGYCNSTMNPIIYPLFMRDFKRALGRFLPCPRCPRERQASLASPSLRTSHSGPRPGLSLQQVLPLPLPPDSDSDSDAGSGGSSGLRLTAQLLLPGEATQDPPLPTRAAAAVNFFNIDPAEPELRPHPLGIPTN
T2 sequence (P14416 1-414 isoform P14416-2): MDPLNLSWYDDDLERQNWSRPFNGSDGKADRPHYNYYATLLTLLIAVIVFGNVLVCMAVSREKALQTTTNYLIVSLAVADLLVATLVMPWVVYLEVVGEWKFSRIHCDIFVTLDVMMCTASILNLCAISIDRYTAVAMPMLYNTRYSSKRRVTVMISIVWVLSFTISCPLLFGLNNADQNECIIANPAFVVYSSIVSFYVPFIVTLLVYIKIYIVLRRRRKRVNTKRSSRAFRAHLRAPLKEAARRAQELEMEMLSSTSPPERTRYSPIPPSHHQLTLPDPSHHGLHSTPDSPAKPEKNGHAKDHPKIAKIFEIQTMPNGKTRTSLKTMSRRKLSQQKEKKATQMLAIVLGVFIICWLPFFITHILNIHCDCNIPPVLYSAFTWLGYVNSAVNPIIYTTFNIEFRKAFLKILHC
T7 sequence (P50406 whole entry): as the sequence (P50406 whole entry) above
T5 sequence (P31645 whole entry): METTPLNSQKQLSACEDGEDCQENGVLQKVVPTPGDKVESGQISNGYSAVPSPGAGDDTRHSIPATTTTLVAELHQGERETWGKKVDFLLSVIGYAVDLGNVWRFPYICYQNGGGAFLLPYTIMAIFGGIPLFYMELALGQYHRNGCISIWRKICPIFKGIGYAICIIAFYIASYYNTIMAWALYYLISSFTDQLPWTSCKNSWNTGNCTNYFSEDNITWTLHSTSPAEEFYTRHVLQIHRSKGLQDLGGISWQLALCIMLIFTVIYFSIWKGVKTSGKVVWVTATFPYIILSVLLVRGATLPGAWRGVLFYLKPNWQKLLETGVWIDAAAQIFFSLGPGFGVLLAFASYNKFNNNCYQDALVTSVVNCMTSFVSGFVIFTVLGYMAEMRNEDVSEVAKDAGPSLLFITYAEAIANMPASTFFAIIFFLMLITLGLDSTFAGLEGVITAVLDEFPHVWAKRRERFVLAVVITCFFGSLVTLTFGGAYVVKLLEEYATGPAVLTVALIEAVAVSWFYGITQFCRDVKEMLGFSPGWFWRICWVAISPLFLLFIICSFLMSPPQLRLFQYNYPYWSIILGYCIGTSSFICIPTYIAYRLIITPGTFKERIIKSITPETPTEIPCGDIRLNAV
T4 sequence (P14416 whole entry): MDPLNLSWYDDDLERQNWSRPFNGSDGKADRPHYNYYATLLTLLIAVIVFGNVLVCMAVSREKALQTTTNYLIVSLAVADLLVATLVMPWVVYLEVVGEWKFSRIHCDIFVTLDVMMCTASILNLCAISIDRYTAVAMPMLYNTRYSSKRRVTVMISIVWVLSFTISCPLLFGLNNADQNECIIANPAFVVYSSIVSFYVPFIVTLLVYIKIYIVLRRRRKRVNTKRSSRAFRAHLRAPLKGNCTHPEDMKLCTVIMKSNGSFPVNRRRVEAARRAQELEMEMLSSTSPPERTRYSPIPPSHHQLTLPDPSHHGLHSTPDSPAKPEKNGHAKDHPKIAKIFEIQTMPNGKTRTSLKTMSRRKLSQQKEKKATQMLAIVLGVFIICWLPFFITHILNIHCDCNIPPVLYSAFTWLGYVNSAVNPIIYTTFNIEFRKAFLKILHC
T8 sequence (P35462 whole entry): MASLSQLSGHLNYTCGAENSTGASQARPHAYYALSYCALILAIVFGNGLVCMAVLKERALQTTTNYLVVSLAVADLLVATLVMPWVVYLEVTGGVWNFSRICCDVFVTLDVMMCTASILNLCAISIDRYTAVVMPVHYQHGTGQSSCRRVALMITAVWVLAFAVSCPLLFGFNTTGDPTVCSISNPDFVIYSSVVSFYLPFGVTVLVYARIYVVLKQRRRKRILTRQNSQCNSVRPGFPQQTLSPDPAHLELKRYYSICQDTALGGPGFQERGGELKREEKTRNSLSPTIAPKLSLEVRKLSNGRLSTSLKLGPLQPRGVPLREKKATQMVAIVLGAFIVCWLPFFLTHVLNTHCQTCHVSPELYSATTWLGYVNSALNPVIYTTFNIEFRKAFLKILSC
T3 sequence (P34969 whole entry): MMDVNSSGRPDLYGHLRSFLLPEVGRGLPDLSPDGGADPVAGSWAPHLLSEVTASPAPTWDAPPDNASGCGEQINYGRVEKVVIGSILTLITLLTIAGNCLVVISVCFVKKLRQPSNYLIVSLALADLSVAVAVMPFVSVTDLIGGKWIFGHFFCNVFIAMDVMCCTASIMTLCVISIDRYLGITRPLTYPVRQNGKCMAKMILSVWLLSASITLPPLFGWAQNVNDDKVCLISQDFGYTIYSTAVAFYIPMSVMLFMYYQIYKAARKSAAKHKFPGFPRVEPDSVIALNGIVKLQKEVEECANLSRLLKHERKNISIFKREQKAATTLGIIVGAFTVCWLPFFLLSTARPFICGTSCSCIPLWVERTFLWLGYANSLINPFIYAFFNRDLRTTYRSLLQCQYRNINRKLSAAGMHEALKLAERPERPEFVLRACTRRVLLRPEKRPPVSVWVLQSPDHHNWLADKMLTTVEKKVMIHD
5-HT2A receptor, human recombinant, sequence (P28223 whole entry): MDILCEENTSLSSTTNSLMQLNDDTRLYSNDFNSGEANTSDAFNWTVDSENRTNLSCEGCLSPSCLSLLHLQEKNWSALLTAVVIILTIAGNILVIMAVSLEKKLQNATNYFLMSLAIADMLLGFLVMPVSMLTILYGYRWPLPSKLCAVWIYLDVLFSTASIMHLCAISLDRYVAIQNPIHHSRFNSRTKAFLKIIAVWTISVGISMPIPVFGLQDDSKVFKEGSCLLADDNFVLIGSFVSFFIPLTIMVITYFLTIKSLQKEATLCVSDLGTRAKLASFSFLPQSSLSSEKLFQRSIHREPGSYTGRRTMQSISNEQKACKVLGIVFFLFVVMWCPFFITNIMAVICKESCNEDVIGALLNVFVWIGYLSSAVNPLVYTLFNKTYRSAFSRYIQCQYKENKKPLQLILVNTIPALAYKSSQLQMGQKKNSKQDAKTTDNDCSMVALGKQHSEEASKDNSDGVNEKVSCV

SMILES: O=S(=O)(c1ccccc1)n1ccc2c(N3CCN(CCCOc4ccccc4)CC3)cccc21 [Compound 12, 4-(4-(3-Phenoxypropyl)piperazin-1-yl)-1-(phenylsulphonyl)-1H-indole]
- inhibition at 1 µM [1]: 73%
- inhibition at 1 µM [2]: 73%
- activation at 1 µM [3]: 11%
- α1 [%] affinity test result [4]: 83%
- activation at 1 µM [5]: -2%

SMILES: CC(C)Oc1ccccc1OCCCN1CCN(c2cccc3c2ccn3S(=O)(=O)c2ccccc2)CC1 [Compound 21, 4-(4-(3-(2-(1-Methylethoxy)phenoxy)propyl)piperazin-1-0)-1-(phenylsulphonyl)-1H-indole]
- 5-HT7 [%] binding assay result [6]: 78%
- D2 [%] binding assay result [7]: 90%
- SERT [%] affinity test result [8]: 13%
- 5-HT1A [%] binding assay result [9]: 91%
- 5-HT6 [%] binding assay result [10]: 97%
- 5-HT2A [%] binding assay result [11]: 80%
- D3 [%] binding assay result [12]: 86%
- α1 [%] affinity test result [4]: 83%

SMILES: O=S(=O)(c1ccccc1)n1ccc2c(N3CCN(CCCOc4ccc5ccoc5c4)CC3)cccc21 [Compound 25, 4-(4-(3-(Benzofuran-6-yloxy)propyl)piperazin-1-yl)-1-(phenylsulphonyl)-1H-indole]
- inhibition at 1 µM [1]: 98%
- inhibition at 1 µM [2]: 75%
- activation at 1 µM [3]: 30%
- α1 [%] affinity test result [4]: 25%
- activation at 1 µM [5]: -4%

SMILES: O=C1CCc2ccc(OCCCCN3CCN(c4cccc5c4ccn5Cc4ccccc4F)CC3)cc2N1 [Compound 61, 7-[4-[4-[1-[(2-Fluorophenyl)methyl]indol-4-yl]piperazin-1-yl]butoxy]-3,4-dihydro-1H-quinolin-2-one]
- α1 [%] affinity test result [4]: 13%

SMILES: O=C1CCc2ccc(OCCCCN3CCN(c4cccc5c4ccn5Cc4ccc(F)cc4)CC3)cc2N1 [Compound 65, 7-[4-[4-[1-[(4-Fluorophenyl)methyl]indol-4-yl]piperazin-1-yl]butoxy]-3,4-dihydro-1H-quinolin-2-one]
- α1 [%] affinity test result [4]: 59%

SMILES: O=S(=O)(c1ccccc1)n1ccc2c(N3CCN(CCCCOc4ccccc4)CC3)cccc21 [Compound 69, 1(Benzenesulfonyl)-4-[4-(4-phenoxybutyl)piperazin-1-yl]indole]
- α1 [%] affinity test result [4]: 49%

SMILES: O=S(=O)(c1ccccc1)n1ccc2c(N3CCN(CCCCOc4ccc(F)cc4)CC3)cccc21 [Compound 70, 1-(Benzenesulfonyl)-4-[4-[4-(4-fluorophenoxy)butyl]piperazin-1-yl]-indole]
- α1 [%] affinity test result [4]: 54%

SMILES: CC(C)Oc1ccccc1OCCCCN1CCN(c2cccc3c2ccn3S(=O)(=O)c2ccccc2)CC1 [Compound 71, 1-(Benzenesulfonyl)-4-[4-[4-(2-isopropoxyphenoxy)butyl]-piperazin-1-yl]indole]
- α1 [%] affinity test result [4]: 40%

Further lines, results first:

- inhibition at 1 µM [1]: 88%
- inhibition at 1 µM [2]: 68%
- activation at 1 µM [3]: 11%
- α1 [%] affinity test result [4]: 93%
- activation at 1 µM [5]: 0%
SMILES: O=S(=O)(c1ccccc1)n1ccc2c(N3CCN(CCCOc4ccc(F)cc4)CC3)cccc21 [Compound 15, 4-(4-(3-(4-Fluorophenoxy)propyl)piperazin-1-yl)-1-(phenylsulphonyl)-1H-indole]

- α1 [%] affinity test result [4]: 56%
SMILES: NC(=O)c1ccccc1OCCCN1CCN(c2cccc3c2ccn3Cc2ccccc2)CC1 [Compound 60, 2-[3-[4-(1-Benzylindol-4-yl)piperazin-1-yl]propoxy]benzamide]

- α1 [%] affinity test result [4]: 50%
SMILES: NC(=O)c1ccccc1OCCCN1CCN(c2cccc3c2ccn3Cc2ccccc2F)CC1 [Compound 62, 2-[3-[4-[1-[(2-Fluorophenyl)methyl]indol-4-yl]piperazin-1-yl]propoxy]-benzamide]

- α1 [%] affinity test result [4]: 57%
SMILES: NC(=O)c1ccccc1OCCCN1CCN(c2cccc3c2ccn3Cc2cccc(F)c2)CC1 [Compound 64, 2-[3-[4-[1-[(3-Fluorophenyl)methyl]indol-4-yl]piperazin-1-yl]propoxy]-benzamide]

- α1 [%] affinity test result [4]: 42%
SMILES: NC(=O)c1ccccc1OCCCN1CCN(c2cccc3c2ccn3Cc2ccc(F)cc2)CC1 [Compound 66, 2-[3-[4-[1-[(4-Fluorophenyl)methyl]indol-4-yl]piperazin-1-yl]propoxy]-benzamide]

- α1 [%] affinity test result [4]: 56%
SMILES: NC(=O)c1ccccc1OCCCN1CCN(c2cccc3c2ccn3Cc2cccc(Cl)c2)CC1 [Compound 68, 2-[3-[4-[1-[(3-Chlorophenyl)methyl]indol-4-yl]piperazin-1-yl]propoxy]-benzamide]
